US20010053796A1, “Delta-aminolevulinic acid for prevention and treatment of infection microorganisms and parasite” (priority 2000, published 2001)

Legend:
[1] = test system: Edwardsiella tarda; assay: Proliferation inhibition of pathogenic bacteria in BHI broth (620 nm); type: cell-based; details: product on the market (Sigma)
Procedure: (§1) Pathogenic index bacteria used in this experiment are Edwardsiella tard, Streptococcus sp., Staphylococcus sp., Staphylococcus epidermidis, Pseudomonas sp., Vibrio anguillarum which are collected from the marine fish farm nearby Yeosu. In solid culture, they were cultured in TSA (tryptic soy agar) supplemented with 0.2% NaCl flat media and in liquid culture, they were prepared by culturing in BHI broth for 24 hrs and setting the O.D. value as 1.0. δ-aminolevulinic acid used in this experiment were one on the market (Sigma) and one formulated by inventors of the present invention (Korean patent application No. 1998-41898). Each 0.167 g δ-aminolevulinic acid were dissolved in 1.0 mL sterilized distilled water was used as undiluted solution. 1.0 M δ-aminolevulinic acid was 2-fold diluted with BHI broth by stages up to 64-fold and prepared for test solution to examine pathogenic bacteria proliferation-prohibiting effect. […] In control group, instead of δ-aminolevulinic acid, BHI broth bacteria suspension were mixed with (1:1) and then observed with the same method above. MIC assay by δ-aminolevulinic acid for major pathogenic bacteria of marine cultivating fishes, Edwardsiella tard, Streptococcus sp., Staphylococcus sp., Staphylococcus epidermidis, Pseudomonas sp., Vibrio anguillarum was carried out by flat drug disc method. 100 μL of each bacteria in a culture solution was mixed with fixed amount of top agar and coated to TSA agar. 1.0 M δ-aminolevulinic acid solution was diluted by 2 folds in PBS and 10 μL of each dilution were absorbed to sterilized disc. After incubation at 23˜25° C. for 2˜3 days, antibacterial effect was indicated by measuring the size (mm) of clear zone. In control group, PBS was absorbed into disc instead of δ-aminolevulinic acid dilution solution with the same amount and observed. From the result of this experiment using δ-aminolevulinic acid on the market, proliferation-inhibiting effects of pathogenic bacteria according to δ-aminolevulinic acid concentration are shown in Table 2a (Edwardsiella tard) and Table 2b (Streptococcus sp.). Below 1/32 fold (31 mM) of δ-aminolevulinic acid dilution rate, proliferation of both bacteria was inhibited. […] The experimental result of δ-aminolevulinic acid prepared by the inventors has shown in Table 3 and no difference in effects from δ-aminolevulinic acid on the market.

[2] = test system: Streptococcus sp.; assay: as above; type: cell-based; details: product on the market (Sigma)
Procedure: as §1

[3] = test system: Edwardsiella tarda; assay: Prevention effect for artificial infection (abdominal injection of bacteria); type: in vivo, Bastardhalibut; details: for Mortality during Cultivation: dead of 20 fish
Procedure: The water temperature was maintained at 20° C. (±2° C. ) throughout the experiment.
As the same method of above Experiment 1, fishes of both control group and experiment group were prepared and artificially infected by direct abdominal injection of Edwardsiella tarda 10^5 CFU per 1 fish. Each experimental fish was moved to fish tanks for monitoring and monitored for mortality according to infection for 2 weeks and viability after 2 weeks.

[4] = test system: White Spot Syndrome Virus (WSSV); assay: Treatment for WSSV infected shrimp; type: in vivo, Penaeus Chinesis
Procedure: In this experiment, after injection of the viral homogenate aforementioned in EXPERIMENT 1, treatment group was immersed respectively in 0.01˜10 ppm of ALA for 1.5 hour for 3 days.

[5] = test system: Birnavirus; assay: Treatment effect on eel disease of Birnavirus (field); type: in vivo; details: 0.1˜10 ppm added to the farm; after 3 weeks administration
Procedure: In the example, the experiment was carried out in the field at the Eel Aguacultural Farm, Gochang and Kunsan, in Chunbuk, Korea. Eels were dead by infection of Birnavirus, which was easely confirmed by microscopical or electron microscopical observation.
ALA, at the concentration range of 0.1˜10 ppm was added to the farm for 3 months. After 3 weeks administration, motality was decreased to less than 10% (1˜2kg).

[6] = above 1/64 fold (16 mM) dilution rate
[7] = below 1/32 fold (31 mM) dilution rate, 24 hrs, 25° C.

Structure (SMILES): NCC(=O)CCC(=O)O [δ-aminolevulinic acid]
- proliferation of bacteria [1, 6]: no significant difference from the control group
- proliferation of bacteria [1, 7]: inhibited
- proliferation of bacteria [2, 6]: no significant difference from the control group
- proliferation of bacteria [2, 7]: inhibited
- Viability ([3]; orally, 0.01 ppm in feed): 75%
- Mortality during Cultivation ([3]; orally, 0.01 ppm in feed): 5
- Viability ([3]; orally, 1.0 ppm in feed): 70%
- Mortality during Cultivation ([3]; orally, 1.0 ppm in feed): 6
- Viability ([3]; orally, 10 ppm in feed): 85%
- Mortality during Cultivation ([3]; orally, 10 ppm in feed): 3
- Viability ([3]; orally, 100 ppm in feed): 95%
- Mortality during Cultivation ([3]; orally, 100 ppm in feed): 1
- Viability ([3]; to fish tanks, 0.01 ppm): 65%
- Mortality during Cultivation ([3]; to fish tanks, 0.01 ppm): 7
- Viability ([3]; to fish tanks, 0.1 ppm): 75%
- Mortality during Cultivation ([3]; to fish tanks, 0.1 ppm): 5
- Viability ([3]; to fish tanks, 1.0 ppm): 85%
- Mortality during Cultivation ([3]; to fish tanks, 1.0 ppm): 3
- Viability ([3]; to fish tanks, 10 ppm): 90%
- Mortality during Cultivation ([3]; to fish tanks, 10 ppm): 2
- Cumulative mortality ([4]; 0.01 ppm, after injection for 3 weeks): 100%
- Mortality after injection for 3 weeks ([4]; 0.01 ppm, day 1, 50 shrimp): 0
- Mortality after injection for 3 weeks ([4]; 0.01 ppm, day 2, 50 shrimp): 0
- Mortality after injection for 3 weeks ([4]; 0.01 ppm, day 3, 50 shrimp): 15
- Mortality after injection for 3 weeks ([4]; 0.01 ppm, day 4, 50 shrimp): 20
- Mortality after injection for 3 weeks ([4]; 0.01 ppm, day 5, 50 shrimp): 12
- Mortality after injection for 3 weeks ([4]; 0.01 ppm, day 6, 50 shrimp): 3
- Cumulative mortality ([4]; 0.1 ppm, after injection for 3 weeks): 18%
- Mortality after injection for 3 weeks ([4]; 0.1 ppm, day 1, 50 shrimp): 0
- Mortality after injection for 3 weeks ([4]; 0.1 ppm, day 2, 50 shrimp): 0
- Mortality after injection for 3 weeks ([4]; 0.1 ppm, day 3, 50 shrimp): 4
- Mortality after injection for 3 weeks ([4]; 0.1 ppm, day 4, 50 shrimp): 3
- Mortality after injection for 3 weeks ([4]; 0.1 ppm, day 5, 50 shrimp): 2
- Mortality after injection for 3 weeks ([4]; 0.1 ppm, day 6, 50 shrimp): 0
- Mortality after injection for 3 weeks ([4]; 0.1 ppm, day 7, 50 shrimp): 0
- Mortality after injection for 3 weeks ([4]; 0.1 ppm, day 21, 50 shrimp): 0
- Cumulative mortality ([4]; 1.0 ppm, after injection for 3 weeks): 10%
- Mortality after injection for 3 weeks ([4]; 1.0 ppm, day 1, 50 shrimp): 0
- Mortality after injection for 3 weeks ([4]; 1.0 ppm, day 2, 50 shrimp): 0
- Mortality after injection for 3 weeks ([4]; 1.0 ppm, day 3, 50 shrimp): 3
- Mortality after injection for 3 weeks ([4]; 1.0 ppm, day 4, 50 shrimp): 2
- Mortality after injection for 3 weeks ([4]; 1.0 ppm, day 5, 50 shrimp): 0
- Mortality after injection for 3 weeks ([4]; 1.0 ppm, day 6, 50 shrimp): 0
- Mortality after injection for 3 weeks ([4]; 1.0 ppm, day 7, 50 shrimp): 0
- Mortality after injection for 3 weeks ([4]; 1.0 ppm, day 21, 50 shrimp): 0
- Cumulative mortality ([4]; 10 ppm, after injection for 3 weeks): 8%
- Mortality after injection for 3 weeks ([4]; 10 ppm, day 1, 50 shrimp): 0
- Mortality after injection for 3 weeks ([4]; 10 ppm, day 2, 50 shrimp): 0
- Mortality after injection for 3 weeks ([4]; 10 ppm, day 3, 50 shrimp): 3
- Mortality after injection for 3 weeks ([4]; 10 ppm, day 4, 50 shrimp): 1
- Mortality after injection for 3 weeks ([4]; 10 ppm, day 5, 50 shrimp): 0
- Mortality after injection for 3 weeks ([4]; 10 ppm, day 6, 50 shrimp): 0
- Mortality after injection for 3 weeks ([4]; 10 ppm, day 7, 50 shrimp): 0
- Mortality after injection for 3 weeks ([4]; 10 ppm, day 21, 50 shrimp): 0
- Cumulative mortality ([4]; immersion 1.0 ppm, 1.5 hour for 3 days after virus injection, 3 weeks): 10%
- Cumulative mortality ([4]; immersion 10 ppm, 1.5 hour for 3 days after virus injection, 3 weeks): 8%
- mortality [5]: less than 10%
